# According to patent publication US20120251613A1, “METHOD FOR TREATING VITILIGO WITH A PROSTAGLANDIN ANALOGUE” (AGILA SPECIALITIES PVT. LTD., priority 2011, published 2012):
# Entries after “also recorded” stand apart in the source; their conditions may differ.
# Key:
# Patients with vitiligo [1] = assay: Clinical efficacy of topical bimatoprost solution for treatment of vitiligo: degree of repigmentation; type: in vivo, human; settings: for number of patients with Complete repigmentation (100%) / number of patients with Excellent repigmentation (75-99%) / number of patients with Marked repigmentation (50-74%) / number of patients with Moderate repigmentation (25-49%) / number of patients with Nil/mild repigmentation (less than 25%) / Repigmentation of body sites: number with Complete repigmentation (100%) / Repigmentation of body sites: number with Excellent repigmentation (75-99%) / Repigmentation of body sites: number with Marked repigmentation (50-74%) / Repigmentation of body sites: number with Moderate repigmentation (25-49%) / Repigmentation of body sites: number with Nil/mild repigmentation (less than 25%): 0.03% solution topically twice a day, 4 months
# Protocol: 20 Patients with vitiligo were treated with topical bimatoprost solution for 4 months to elucidate its efficacy and tolerability in stable vitiligo. The solution contained bimatoprost in a concentration of 0.3 mg/mL (0.03%), benzalkonium chloride in a concentration of 0.05 mg/mL, and water. The solution has a pH of between 6.8 and 7.8, and contains sodium chloride, a dibasic sodium phosphate/citric acid buffer, and sodium hydroxide and/or hydrochloric acid to adjust the pH. The subjects had suffered from vitiligo for a period of between 8 and 80 months. The average period of depigmentation for the patients was 26.7 months. All the patients were examined by an independent observer. The percentage of repigmentation in form of color or size changes and folliculocentric/peripheral repigmentation were observed. […] Specifically, Nil/Mild repigmentation means that the skin has undergone less than 25% repigmentation, i.e., less than 25% of the skin surface has repigmented or, if repigmentation is observed, the skin has regained less than 25% of its natural color. Moderate repigmentation means that the skin has undergone 25-49% repigmentation, as measured by repigmented surface are and/or skin color. Marked repigmentation means that the skin has undergone 50-74% repigmentation, and excellent repigmentation means that the skin has undergone 75-99% repigmentation. Complete response means that repigmented skin lesions from vitiligo are indistinguishable from skin which has never been depigmented. The repigmentation effect of the composition starts rapidly within one to two months after starting the treatment. Topical treatment with bimatoprost is continued for a period of at least two months. If no response is observed to treatment with topical bimatoprost, treatment is stopped at the end of two months. If a mild or moderate response to treatment with topical bimatoprost is observed, therapy is continued for at least 4 months, while observing the patient for any further delayed improvement. In cases where complete or excellent response to topical bimatoprost is observed, treatment is stopped to determine whether relapse, i.e., whether loss of pigmentation is observed upon cessation of bimatoprost therapy. The frequency of application of the topical bimatoprost as an aqueous solution is twice a day.
# Patients with vitiligo [2] = assay: Tolerability / side effects during therapy with topical bimatoprost; type: in vivo, human
# Protocol: 20 Patients with vitiligo were treated with topical bimatoprost solution for 4 months to elucidate its efficacy and tolerability in stable vitiligo. The solution contained bimatoprost in a concentration of 0.3 mg/mL (0.03%), benzalkonium chloride in a concentration of 0.05 mg/mL, and water. The solution has a pH of between 6.8 and 7.8, and contains sodium chloride, a dibasic sodium phosphate/citric acid buffer, and sodium hydroxide and/or hydrochloric acid to adjust the pH.
# All the patients were examined by an independent observer. The percentage of repigmentation in form of color or size changes and folliculocentric/peripheral repigmentation were observed.
# Patients with vitiligo [3] = assay: Follow-up for 6 months after stopping bimatoprost treatment: positive response and relapse; type: in vivo, human; settings: for Response positive (at least 25% repigmentation), number of patients / Response positive, ratio to total number of patients: 6 months after stopping therapy; for Relapse/loss of pigment, number of patients / Relapse/loss of pigment, percentage of patients with positive response: 6 months following cessation of therapy
# Description: The hypothetical mechanism of repigmentation would be of increased melanogenesis in dermal melanocytes together with increased transfer of melanin granules to the basal melanocytes.
# [4] = cited from earlier work
# [5] = site Mucosae (mucosal vitiligo or non-mucosal vitiligo progressed to mucosal surfaces)
# [6] = vitiliginous lesions on the face or neck
# [7] = vitiliginous lesions on the trunk or extremities
structure (smiles),measurement,setting,value
"CCNC(=O)CCCC=CCC1C(O)CC(O)C1C=CC(O)CCc1ccccc1 (stereo not drawn) [bimatoprost, 7-[3,5-dihydroxy-2-(3-hydroxy-5-phenyl-pent-1-enyl)-cyclopentyl]-N-ethyl-hept-5-enamide]","complete clearance of vitiligo lesions (100% repigmentation), percentage of patients",Patients with vitiligo [1]; 20 patients,30%
same,"marked to excellent repigmentation (50-99%), percentage of patients",Patients with vitiligo [1]; 20 patients,55%
same,"patients in whom repigmentation was observed, percentage","Patients with vitiligo [1]; 20 patients, all types of vitiligo",70%
same,number of patients with Complete repigmentation (100%),Patients with vitiligo [1]; Focal vitiligo,1
same,number of patients with Excellent repigmentation (75-99%),Patients with vitiligo [1]; Focal vitiligo,4
same,number of patients with Marked repigmentation (50-74%),Patients with vitiligo [1]; Focal vitiligo,1
same,number of patients with Moderate repigmentation (25-49%),Patients with vitiligo [1]; Focal vitiligo,0
same,number of patients with Nil/mild repigmentation (less than 25%),Patients with vitiligo [1]; Focal vitiligo,0
same,number of patients with Complete repigmentation (100%),Patients with vitiligo [1]; Mucosal vitiligo,0
same,number of patients with Excellent repigmentation (75-99%),Patients with vitiligo [1]; Mucosal vitiligo,0
same,number of patients with Marked repigmentation (50-74%),Patients with vitiligo [1]; Mucosal vitiligo,0
same,number of patients with Moderate repigmentation (25-49%),Patients with vitiligo [1]; Mucosal vitiligo,0
same,number of patients with Nil/mild repigmentation (less than 25%),Patients with vitiligo [1]; Mucosal vitiligo,2
same,number of patients with Complete repigmentation (100%),Patients with vitiligo [1]; Segmental vitiligo,1
same,number of patients with Excellent repigmentation (75-99%),Patients with vitiligo [1]; Segmental vitiligo,2
same,number of patients with Marked repigmentation (50-74%),Patients with vitiligo [1]; Segmental vitiligo,1
same,number of patients with Moderate repigmentation (25-49%),Patients with vitiligo [1]; Segmental vitiligo,0
same,number of patients with Nil/mild repigmentation (less than 25%),Patients with vitiligo [1]; Segmental vitiligo,0
same,mean onset of pigmentation after initiation of therapy,Patients with vitiligo [1]; all patients,2 months
same,patients treated with at least 50% repigmentation,Patients with vitiligo [1]; all patients treated,75%
same,"response of lesions, in words",Patients with vitiligo [1]; lesions on mucosal surfaces or on the extremities,respond poorly
same,vitiliginous lesions showing at least 50% repigmentation,Patients with vitiligo [1]; lesions on the face and neck,all vitiliginous lesions
same,vitiliginous lesions showing at least 50% repigmentation,Patients with vitiligo [1]; lesions on the trunk,66%
same,repigmentation commencing after initiation of therapy,Patients with vitiligo [1]; new patients (vitiligo for 6 months or less),four to six
same,"patients in whom repigmentation was observed, number","Patients with vitiligo [1]; out of 20 patients, all types of vitiligo",14
same,"repigmentation, in words",Patients with vitiligo [1]; remaining patients with generalized vitiligo,little or no repigmentation
same,patients exhibiting at least 50% repigmentation (at least marked),Patients with vitiligo [1]; segmental or focal vitiligo,all patients
same,Repigmentation of body sites: number with Complete repigmentation (100%),Patients with vitiligo [1]; site Extremities,0
same,Repigmentation of body sites: number with Excellent repigmentation (75-99%),Patients with vitiligo [1]; site Extremities,0
same,Repigmentation of body sites: number with Marked repigmentation (50-74%),Patients with vitiligo [1]; site Extremities,0
same,Repigmentation of body sites: number with Moderate repigmentation (25-49%),Patients with vitiligo [1]; site Extremities,2
same,Repigmentation of body sites: number with Nil/mild repigmentation (less than 25%),Patients with vitiligo [1]; site Extremities,2
same,Repigmentation of body sites: number with Complete repigmentation (100%),Patients with vitiligo [1]; site Head & neck,4
same,Repigmentation of body sites: number with Excellent repigmentation (75-99%),Patients with vitiligo [1]; site Head & neck,4
same,Repigmentation of body sites: number with Marked repigmentation (50-74%),Patients with vitiligo [1]; site Head & neck,2
same,Repigmentation of body sites: number with Moderate repigmentation (25-49%),Patients with vitiligo [1]; site Head & neck,0
same,Repigmentation of body sites: number with Nil/mild repigmentation (less than 25%),Patients with vitiligo [1]; site Head & neck,0
same,Repigmentation of body sites: number with Complete repigmentation (100%),Patients with vitiligo [1]; [5],0
same,Repigmentation of body sites: number with Excellent repigmentation (75-99%),Patients with vitiligo [1]; [5],0
same,Repigmentation of body sites: number with Marked repigmentation (50-74%),Patients with vitiligo [1]; [5],0
same,Repigmentation of body sites: number with Moderate repigmentation (25-49%),Patients with vitiligo [1]; [5],2
same,Repigmentation of body sites: number with Nil/mild repigmentation (less than 25%),Patients with vitiligo [1]; [5],2
same,Repigmentation of body sites: number with Complete repigmentation (100%),Patients with vitiligo [1]; site Trunk,0
same,Repigmentation of body sites: number with Excellent repigmentation (75-99%),Patients with vitiligo [1]; site Trunk,2
same,Repigmentation of body sites: number with Marked repigmentation (50-74%),Patients with vitiligo [1]; site Trunk,2
same,Repigmentation of body sites: number with Moderate repigmentation (25-49%),Patients with vitiligo [1]; site Trunk,0
same,Repigmentation of body sites: number with Nil/mild repigmentation (less than 25%),Patients with vitiligo [1]; site Trunk,2
same,start of the repigmentation effect after starting the treatment,"Patients with vitiligo [1]; topical, twice a day",one to two
same,number of patients with Complete repigmentation (100%),Patients with vitiligo [1]; vitiligo Vulgaris,2
same,number of patients with Excellent repigmentation (75-99%),Patients with vitiligo [1]; vitiligo Vulgaris,2
same,number of patients with Marked repigmentation (50-74%),Patients with vitiligo [1]; vitiligo Vulgaris,1
same,number of patients with Moderate repigmentation (25-49%),Patients with vitiligo [1]; vitiligo Vulgaris,0
same,number of patients with Nil/mild repigmentation (less than 25%),Patients with vitiligo [1]; vitiligo Vulgaris,3
same,"repigmentation, in words",Patients with vitiligo [1]; vitiligo restricted to the mucosal surfaces or to the extremities,little or no repigmentation
same,patients exhibiting at least 50% repigmentation (at least marked),Patients with vitiligo [1]; vitiligo vulgaris (generalized vitiligo),More than 60%
same,severe adverse reactions during the trial,"Patients with vitiligo [2]; 20 patients, 0.03% solution topically, 4 months",No severe adverse reactions
same,most commonly observed side effect,"Patients with vitiligo [2]; after application, especially on the lips",transient burning sensation
same,incidence of side-effects during therapy,"Patients with vitiligo [2]; topical, 20 patients",20%
same,severity of side effects,"Patients with vitiligo [2]; topical, 20 patients",mild
same,"Response positive (at least 25% repigmentation), number of patients","Patients with vitiligo [3]; Extremities, 4 patients",2
same,"Response positive, ratio to total number of patients","Patients with vitiligo [3]; Extremities, 4 patients",50%
same,"Relapse/loss of pigment, number of patients",Patients with vitiligo [3]; Extremities,1
same,"Relapse/loss of pigment, percentage of patients with positive response",Patients with vitiligo [3]; Extremities,50%
same,"Response positive (at least 25% repigmentation), number of patients","Patients with vitiligo [3]; Face and neck, 10 patients",10
same,"Response positive, ratio to total number of patients","Patients with vitiligo [3]; Face and neck, 10 patients",100%
same,"Relapse/loss of pigment, number of patients",Patients with vitiligo [3]; Face and neck,1
same,"Relapse/loss of pigment, percentage of patients with positive response",Patients with vitiligo [3]; Face and neck,10%
same,"Response positive (at least 25% repigmentation), number of patients","Patients with vitiligo [3]; Focal, 6 patients",6
same,"Response positive, ratio to total number of patients","Patients with vitiligo [3]; Focal, 6 patients",100%
same,"Relapse/loss of pigment, number of patients",Patients with vitiligo [3]; Focal,0
same,"Response positive (at least 25% repigmentation), number of patients","Patients with vitiligo [3]; Mucosal, 2 patients",0
same,"Relapse/loss of pigment, number of patients",Patients with vitiligo [3]; Mucosal,0
same,"Response positive (at least 25% repigmentation), number of patients","Patients with vitiligo [3]; Segmental, 4 patients",4
same,"Response positive, ratio to total number of patients","Patients with vitiligo [3]; Segmental, 4 patients",100%
same,"Relapse/loss of pigment, number of patients",Patients with vitiligo [3]; Segmental,0
same,"Response positive (at least 25% repigmentation), number of patients","Patients with vitiligo [3]; Trunk, 6 patients",4
same,"Response positive, ratio to total number of patients","Patients with vitiligo [3]; Trunk, 6 patients",66%
same,"Relapse/loss of pigment, number of patients",Patients with vitiligo [3]; Trunk,2
same,"Relapse/loss of pigment, percentage of patients with positive response",Patients with vitiligo [3]; Trunk,50%
same,"Response positive (at least 25% repigmentation), number of patients","Patients with vitiligo [3]; Vulgaris, 8 patients",4
same,"Response positive, ratio to total number of patients","Patients with vitiligo [3]; Vulgaris, 8 patients",50%
same,"Relapse/loss of pigment, number of patients",Patients with vitiligo [3]; Vulgaris,1
same,"Relapse/loss of pigment, percentage of patients with positive response",Patients with vitiligo [3]; Vulgaris,25%
same,patients exhibiting a positive response 6 months after stopping therapy,Patients with vitiligo [3]; focal or segmental vitiligo,100%
same,patients with positive response showing measurable depigmentation after 6 months,Patients with vitiligo [3]; focal or segmental vitiligo,none
same,patients exhibiting a positive response 6 months after stopping therapy,"Patients with vitiligo [3]; generalized vitiligo (vitiligo vulgaris), eight patients",50%
same,"patients exhibiting a positive response 6 months after stopping therapy, number","Patients with vitiligo [3]; generalized vitiligo (vitiligo vulgaris), of eight patients",four
same,"patients with positive response showing measurable depigmentation after 6 months, number","Patients with vitiligo [3]; generalized vitiligo, of four responders",one
same,patients exhibiting a positive response 6 months after stopping therapy,Patients with vitiligo [3]; [6],100%
same,patients with positive response showing measurable depigmentation after 6 months,Patients with vitiligo [3]; [6],none
same,patients exhibiting a positive response 6 months after stopping therapy,Patients with vitiligo [3]; [7],60%
same,patients with positive response showing measurable depigmentation after 6 months,Patients with vitiligo [3]; [7],60%
same,solubility in water,[4],only slightly soluble; also recorded: very low
